According to ChEMBL document CHEMBL3352106, “Phosphocalyculin C as a pyrophosphate protoxin of calyculin C in the marine sponge Discodermia calyx” (Bioorg Med Chem Lett, 2014):

Test system: P388
Assay: Cytotoxicity against mouse P388 cells assessed as reduction in cell viability
Type: functional, cell-based

SMILES | IC50 [nM]
COC[C@@H]([C@H](O)[C@H](O)C(=O)N[C@H](C)C[C@H](C)c1nc(/C=C/C[C@@H]2O[C@]3(C[C@@H](O)[C@@H]2C)O[C@H]([C@H](C[C@H](O)[C@H](C)[C@H](O)[C@H](C)/C=C(C)/C(C)=C/C=C/C(C)=C\C#N)OC)[C@H](OP(=O)(O)OP(=O)(O)O)C3(C)C)co1)N(C)C | 36
COC[C@@H]([C@H](O)[C@H](O)C(=O)N[C@H](C)C[C@H](C)c1nc(/C=C/C[C@@H]2O[C@]3(C[C@@H](O)[C@@H]2C)O[C@H]([C@H](C[C@H](O)[C@H](C)[C@H](O)[C@H](C)/C=C(C)/C(C)=C/C=C/C(C)=C\C#N)OC)[C@H](OP(=O)(O)O)C3(C)C)co1)N(C)C [CALYCULIN] | 0.007
